From publication PMC7899551, “Phase 1 study of Z-endoxifen in patients with advanced gynecologic, desmoid, and hormone receptor-positive solid tumors” (Oncotarget, 2021)
Values joined by “and” are separate entries in the source; they are usually repeats but may differ in a detail not shown here. Equal entries are not always repeated. One block for each compound: values may come before it.

Key:
[1] = system: ERβ; settings: cited from earlier work
[2] = system: ERα; settings: cited from earlier work
[3] = Plasma pharmacokinetics of Z-endoxifen (HPLC assay, non-compartmental analysis); type: in vivo, human
Experimental: This was an open-label trial of Z-endoxifen in patients with advanced solid tumors (https://clinicaltrials.gov/ identifier: NCT01273168). Z-endoxifen-HCl was supplied by the Pharmaceutical Management Branch, National Cancer Institute, as 20 and 40 mg capsules; agent was administered orally once daily on a continuous schedule in 28-day cycles with a starting dose of 20 mg/day taken either 1 hour before or 2 hours after meals. Dose escalation followed a traditional 3+3 design in which patients were dose-escalated to the next dose level (DL) in cohorts of 3 patients until dose-limiting toxicity (DLT) was observed. DLT was defined as an adverse event that occurred during cycle 1, was thought to be related to study drug administration, and met one of the following criteria: grade ≥ 3 non-hematologic toxicities (except diarrhea, nausea and vomiting, alopecia, rising creatinine or electrolyte toxicities that resolved within 24 hours, or intolerable estrogen withdrawal symptoms) or grade ≥ 3 hematologic toxicities (except neutropenia lasting less than 5 days, lymphopenia, or anemia). Eight dose levels (DL1-8) were examined: 20, 40, 60, 100, 140, 200, 280, and 360 mg, respectively. Two patients at DL8 received the free base form of Z-endoxifen on day 1 rather than the hydrochloride salt to assess the pharmacokinetics of that formulation.
A 3-mL blood sample was collected in a K2 EDTA tube on day 1 of cycle 1 before drug administration and at the following times post-first dose: 0.5, 1, 2, 3, 4, 6, 8, and 24 hours. Samples were collected at the same time points on day 28 of cycle 1 for DL1-6 until a protocol amendment eliminated the requirement for these samples at the higher dose levels. Samples were wrapped in aluminum foil after collection to protect from light exposure. A 10-mL aliquot of urine was collected before agent administration on cycle 1 day 1, for 24 hours after dosing on day 1, and before drug administration on cycle 2 day 1; samples were refrigerated prior to analysis.
Plasma and urine concentrations of Z- and E-endoxifen were measured using a validated, post-column fluorescence derivatization HPLC assay. Non-compartmental pharmacokinetic parameters were calculated using WinNonlin version 7.0 (Pharsight Corp., Mountainview, CA, USA). A 2 μM Cmax target was established for day 28 plasma concentration. The amount of Z-endoxifen excreted in urine was measured over a 24-hour collection period.

[4] = system: hormone-refractory prostate cancer; settings: 200 mg/m^2/day, men with hormone-refractory prostate cancer; cited from earlier work
[5] = system: metastatic ER+ breast cancer; settings: women with metastatic ER+ breast cancer; cited from earlier work
[6] = system: ovarian cancer; settings: patients with ovarian cancer; cited from earlier work
[7] = free base, 360 mg oral, day 1, mean of patients 35 and 36
[8] = free base, 360 mg oral, day 1, patients 35 and 36 individually

Compound: 4-hydroxy-tamoxifen
binding affinity relative to tamoxifen or NDM-tamoxifen [1]: approximately 100 fold
binding affinity relative to tamoxifen or NDM-tamoxifen [2]: approximately 100 fold

Plasma concentration as percentage of Z-endoxifen levels ([3]; after oral Z-endoxifen): < 2%
Compound: CC/C(=C(/c1ccc(O)cc1)c1ccc(OCCNC)cc1)c1ccccc1 [E-endoxifen]

Compound: CC/C(=C(\c1ccc(O)cc1)c1ccc(OCCNC)cc1)c1ccccc1 [Endoxifen, 4-hydroxy-N-desmethyl-tamoxifen]
binding affinity relative to tamoxifen or NDM-tamoxifen [1]: approximately 100 fold
binding affinity relative to tamoxifen or NDM-tamoxifen [2]: approximately 100 fold

Compound: CC/C(=C(\c1ccc(O)cc1)c1ccc(OCCNC)cc1)c1ccccc1 [free base form of Z-endoxifen]
AUC(0–24 h), Mean [3, 7]: 25248 ng·h/mL
C24 h, Mean [3, 7]: 790 ng/mL
Cmax, Mean [3, 7]: 1770 ng/mL
Tmax, Mean [3, 7]: 5.0 h
AUC(0–24 h) [3, 8]: 8959 ng·h/mL and 41537 ng·h/mL
C24h [3, 8]: 12 ng/mL and 1568 ng/mL
Tmax [3, 8]: 6.0 h and 4.0 h

Compound: CC/C(=C(\c1ccccc1)c1ccc(OCCN(C)C)cc1)c1ccccc1 [tamoxifen]
mean plasma tamoxifen concentration [4]: 2.94 (± 1.15) μM
women deriving benefit [5]: about 50%
complete responses [6]: 4%
partial responses [6]: 9%
stable disease [6]: 38%
